# Measurements published in article PMC10103840 (Frontiers in Pharmacology, 2023).
# Where “and” joins values, the source holds several entries; their conditions need not be identical. Identical values can stand only once.
# Assays:
# [1] = System adherence test (empty perfusion chamber, maternal circuit only); format: in vitro ADME; details: % of initial concentration, 5 μM in PM, no placental tissue, 240 min, n = 3
# Description: The dissolution and adherence of the compounds to the perfusion equipment and to the tubing system was assessed before starting perfusions with human placentae. […] The compounds were directly dissolved in PM at a final concentration of 5 μM (100 mL reservoir) and individually tested in three independent experiments (n = 3).
# in vitro [2] = details: human
# Description: (§1) BeWo b30 choriocarcinoma cells were obtained from Dr. Tina Buerki-Thurnherr (Empa, St. Gallen, Switzerland), with permission from Dr. Alan L. Schwartz (Washington University School of Medicine, St. Louis MO, USA), and were cultivated in F-12 K Nut Mix supplemented with 10% heat inactivated FBS, antibiotics (100 U/mL penicillin, 100 µg/mL […]), and 2 mM L-glutamine (all from Gibco). The cells were cultivated in a humidified incubator at 37°C and 5% CO2 atmosphere.
# (§2) BeWo b30 cells were cultured on Transwell® polycarbonate membrane inserts (24-well format; 0.4 μm pore size, 0.33 cm^2 cell growth area, 200 μL apical volume, 1′000 μL basolateral volume; Corning, Sigma-Aldrich) at a density of 60′000 cells/well. These inserts were then cultivated in a cellZscope (nanoAnalytics) at 37°C/5% CO2. Cell culture medium was replaced every 2 days up to 11 days to find the best possible conditions.
# (§3) BeWo b30 cells were cultured in transparent 24-well plates under the same conditions as mentioned above and transferred to the cellZscope® at day 8 to record TER and Ccl values. After 24 h (day 9) and when a TER of 30–60 Ωcm^2 was reached and Ccl was between 0.5 and 5.0 μF/cm^2, the permeability assay was initiated by adding valerenic acid (5 μM; in HBSS with 4% BSA) to the apical compartment, while the basolateral compartment contained 1′000 μL of HBSS only. […] Samples (150 μL apical, 800 μL basolateral) were collected at each time point (0, 15, 30, 60 min; one insert per time point). After 60 min, a part of the inserts was transferred back to the cellZscope® to monitor TER and Ccl values during another 24 h. The cells grown on the other part of the inserts were quickly washed with 200 μL of cold HBSS and then lysed with 700 μL acetonitrile (100 μL apical, 600 μL basolateral) for 40 min on an orbital shaker (450 rpm, room temperature) to determine the test substance cell contents.
# (§4) Apparent permeability coefficients (Papp) were calculated according to the following Eq. 1: Papp cm/s=∆Q/∆t/ACA0 (1) where ΔQ/Δt is the rate of amount transported to the receiver compartment, A is the membrane surface area (0.33 cm^2), and C A0 is the initial concentration in the apical compartment.
# (§5) The clearance values were calculated according to the following Eq. 2 ([Neuhaus et al., 2008]): Clearance μL=CBnVB/CA−VB/VA∙∑CBn−1 (2) where C Bn and V B are the concentration and volume in the basolateral compartment at a specific timepoint (n), respectively; C A and VA are the concentration and volume in the apical compartment, respectively, and C Bn-1 is the total amount of substance found in the basolateral compartment up to the previous timepoint (n-1).
# (§6) Recovery (mass balance) of each compound was calculated according to the following Eq. 3: Recovery %=CAfVA+CBfVB+CCfVC/CA0VA∙100 (3) where C Af , C Bf and C Cf are the final compound concentrations in apical, basolateral, and cellular compartments, respectively; C A0 is the initial concentration in the apical compartment, and V A , V B and V C are the volumes in the respective compartments.
# (§7) For valerenic acid, 150 µL of the IS in MeOH were added to 50 µL of sample, and the mixture centrifuged for 20 min at 13′200 rpm/16′100 rcf at 10°C (Centrifuge 5415R, Eppendorf). An aliquot (50 µL) of the supernatant was collected and transferred into HPLC vials. Vials were centrifuged for additional 20 min prior to U(H)PLC-MS/MS analysis in full loop mode (2 µL).
# BeWo b30 cells = assay: in vitro; details: human, 60 min, 5 μM
# Description: as §1, §2, §3, §4, §5, §6, §7
# placental tissue [3] = tested on: placental tissue
# Description: The stability of volumes in each reservoir ensured the integrity of the circuits and served for the detection of fetal-maternal (FM) leaks (≤4 mL/h). Throughout the perfusion additional quality control measures included a physiological pH-range (7.2 ± 0.1) and a controlled fetal perfusion pressure (≤ 70 mmHg). Samples were taken at defined timepoints over a 240 min period, immediately centrifuged, and stored in glass micro-inserts (VWR) at −80°C for bioanalytical analysis. A blood gas analysis (pH, pO2, pCO2, glucose, lactate; ABL800 FLEX) of fetal and maternal samples was performed to ensure viability and metabolic activity of placental tissue during perfusion. The production of the placental hormones beta-human chorionic gonadotropin (β-hCG) and leptin was monitored by standard ELISA to assess tissue functionality ex vivo [see ([Spiess et al., 2022a]) and references therein]. For β-hCG, flat-bottom microplates were coated with rabbit polyclonal anti-hCG antibody (Agilent Dako) at a 1:1′000 dilution and the mouse monoclonal anti-hCG (abcam; 1:5′000) served as secondary antibody. The peptide hormone hCG (Lucerna-Chem) was used as reference standard; standard final concentrations of between 100 mU/mL and 2.5 mU/mL were prepared by serial dilution in seven steps and used in each plate. The goat anti-mouse-IgG-horseradish peroxidase conjugate (abcam) antibody was used at a 1:5′000 dilution. The substrate consisted of O-phenylenediamine dihydrochloride. […] For leptin, microtiter plates were coated with mouse monoclonal anti-human leptin/OB (R&D Systems; 1:250). The second antibody was biotinylated monoclonal mouse anti-human leptin/OB (R&D Systems), used at a dilution of 1:1′000. The standard was recombinant human leptin (R&D Systems); standard final concentrations of between 2′000 pg/mL and 15.6 pg/mL were prepared by serial 1:2 dilution in seven steps and used in each plate. […] The conjugate streptavidin-horseradish peroxidase (Southern Biotechnology Associates, 1:4′000) was added and the plate incubated for 60 min. For the development, ready-to-use tetramethylbenzidine substrate solution (Thermo Fischer) was used.
# Concentrations in the placental perfusion profiles (Figure 2) and system adherence tests (Figure 4) were expressed as a percentage (%) of the maternal concentration at the beginning of the perfusion, whereby the maternal concentration, measured in the maternal reservoir, was adjusted to the total volume of the full maternal circuit (maternal reservoir and dead volume of the system). The FM concentration ratio (FM ratio; Figure 3) was calculated for each timepoint and plotted against the perfusion time (min). The final recovery (%) is the sum of the amounts of study compound present in both perfusates at the end of a perfusion, and the sample removed during the experiment. Glucose consumption and lactate production are presented as the sum of changes (from the beginning to the end of perfusion) in total content (μmol) in both circuits, normalized by total perfusion time (min) and weight (g) of perfused cotyledon. […]
# Multiple group comparisons were performed for the glucose consumption, lactate production, β-hCG and leptin production using the non-parametric Mann–Whitney U with GraphPad Prism (version 9.3.1 for macOS; GraphPad Software). […] Data are expressed as mean ± SD of three to four independent experiments.
# [4] = 60 min, 5 μM
# in vitro [5] = details: human, pH 7.2
# [6] = human volunteers, ref Jackson et al., 2014; cited from earlier work
# [7] = Stability assay in PBS, perfusion medium and placental homogenates; format: in vitro ADME, human
# Description: In short, after spiking the various matrices with the study compounds, samples were either processed immediately for U(H)PLC-MS/MS analysis (C0), or kept at 4°C/37°C on an orbital shaker (600 rpm) for 360 min before processing for U(H)PLC-MS/MS analysis. Samples were processed via solid phase extraction or protein precipitation prior to analysis.
# placental tissue [8] = assay: Histopathological evaluation of perfused placentae; set-up: species or system human
# Description: Immediately after perfusion the placentae were fixed in 4% paraformaldehyde for at least 24 h. Tissue samples from representative placental tissue sections, each from perfused, non-perfused, and transitional area were prepared to perform a pathological examination. For this purpose, the tissue was embedded in paraffin, cut (∅ 2-3 µm), and stained (standard hematoxylin-eosin stain, Braun-Brenn modified Gram stain) according to the standards of routine histopathological diagnosis of the Department of Pathology and Molecular Pathology (University Hospital of Zurich). […] The blood void and width of the intervillous space and fetal blood vessels in the chorionic villi provided information about the quality of perfusion, and particular attention was paid to the presence of intravascular thrombi. General signs of degeneration, such as vacuolization of the cytotrophoblast, villous vascular endothelium viability, and formation of hydropic villous changes compared with non-perfused tissue indicated whether tissue damage might have occurred during perfusion. Microscopic effects and placental tissue damage in the perfused area were expressed in relative amounts (%) to the non-perfused tissue.
# [9] = Transwell control experiments across cell-free inserts; details: data not shown
# BeWo cells = details: ref Spiess et al., 2022b; cited from earlier work
# [10] = non-perfused area of same placenta
structure (smiles),measurement,setting,value
"Cc1cc(=O)n(-c2ccccc2)n1C [Antipyrine, antipyrine, reference compound]",Sampling (% found),"human placental barrier; human, 5 μM, pH 7.2",21.8 ± 1.3%
same,Time to equilibrium between fetal and maternal compartment,"human placental barrier; human, 5 μM, pH 7.2",120 min
same,Time to equilibrium between fetal and maternal concentrations (FM ratio),"human placental barrier; human, 5 μM, pH 7.2",90 min
same,FM ratio at 90 min,"human placental barrier; human, 90 min, 5 μM, pH 7.2",1.03
same,FM ratio at 120 min,"human placental barrier; human, 120 min, 5 μM, pH 7.2",0.98
same,FM ratio at 180 min,"human placental barrier; human, 180 min, 5 μM, pH 7.2",1.05
same,FM ratio at 240 min,"human placental barrier; human, 240 min, 5 μM, pH 7.2",0.92
same,Compound lost / adhering to the perfusion equipment,[1],−2.2% and −2.2% ± 7.0%
same,"Papp at 60 min, 5 μM",in vitro [2],28 ×10⁻⁶ cm/s
same,"recovery at 60 min, 5 μM",in vitro [2],81.9%
same,Clearance across BeWo b30 cell layer,BeWo b30 cells,35.5 µL
same,Lactate production,placental tissue [3],0.27 µmol/g/min
same,Leptin production,placental tissue [3],2.26 ng/min
same,Total glucose consumption,placental tissue [3],0.39 µmol/g/min
same,β-hCG production,placental tissue [3],1.44 U/min
same,Clearance across cell-free insert,[4],33.5 µL
same,"recovery at 240 min, 5 μM",in vitro [5],79.2%
"Cc1cc(O)c2c(=O)c3c(O)cc(O)c4c5c(O)cc(O)c6c(=O)c7c(O)cc(C)c8c1c2c(c34)c(c78)c65 [Hypericin, hypericin]",Plasma concentration,[6],2.2 ng/mL and 4.36 nM
same,Stability in PBS compared to PM (in words),"[7]; 360 min, 4°C and 37°C",less stable
same,"Remaining in placental homogenate, Donor 1","[7]; human, tissue homogenate, 6 h",101.0%
same,"Remaining in placental homogenate, Donor 2","[7]; human, tissue homogenate, 6 h",82.7%
same,"Remaining in placental homogenate, Donor 3","[7]; human, tissue homogenate, 6 h",93.7%
same,Global placental pathology: Else,placental tissue [8],CCB and N
same,Extravasations into villous stroma (in words),placental tissue [8]; after perfusion,no extravasations into villous stroma
same,Ruptures of villous vessels (in words),placental tissue [8]; after perfusion,no ruptures of villous vessels
same,Hydropic changes in non-perfused,placental tissue [8]; [10],5% and 0%
same,Intervillous spaces without blood in non-perfused,placental tissue [8]; [10],40% and 80%
same,Vacuolated trophoblast in villi: in non-perfused too?,placental tissue [8]; [10],0%
same,Thrombi in vessels of stem villi (in words),placental tissue [8]; perfused and non-perfused,no thrombi detectable
same,Intervillous spaces without blood,placental tissue [8]; perfused area,90% and 95%
same,Emptiness of villous vessels,"placental tissue [8]; perfused area, individual experiments",90% and 80% and 85%
same,Passage across cell-free inserts (in words),[9],did not cross the cell-free inserts to a sufficient extent
same,Concentration lowering the viability of placental cells,BeWo cells,1000 nM
same,Concentration with genotoxic effects,BeWo cells,10000 nM
same,Concentration with increased apoptosis / apoptotic effects,BeWo cells,1000 nM
same,Transplacental transfer (in words),"human placental barrier; 240 min perfusion, 5 μM maternal",did not cross the human placental barrier
same,Concentration in the maternal compartment,"human placental barrier; human, 240 min, 5 μM, pH 7.2",approximately 46 % of initial concentration
same,M perfusate (% found),"human placental barrier; maternal perfusate after 240 min, % of amount in maternal sample at beginning",36.7%
same,Compound lost / adhering to the perfusion equipment,[1],3.8% and 3.8% ± 13.1%
same,Effect on β-hCG and leptin production (in words),"placental tissue [3]; 5 μM, 240 min perfusion, vs antipyrine control perfusions","neither hyperforin, hypericin, nor valerenic acid inhibited their production in a statistically significant manner"
same,"recovery at 240 min, 5 μM",in vitro [5],54%
